Assay results reported in patent US4371537A, “Sulfur-substituted phenoxypyridines having antiviral activity” (The Dow Chemical Company, priority 1981, dated 1983).
In brackets after ≈: the same amount, converted by molar mass.

Key:
[1] = system: rhinovirus type 1A (RV-1A); assay: Tissue culture testing, rhinovirus type 1A in HeLa cells; type: cell-based; conditions: Enterovirus, 48 and 72 hours, NA = not active at the standard test conditions, read-out: RV-1A: lowest concentration of the compound necessary to cause a 50 percent reduction in cytopathic effect
Description: (§1) Monolayered HeLa cells in 16 millimeter (mm) tissue culture dishes were treated with 1 ml of culture medium (Eagles medium supplemented with fetal calf serum) containing subject compound at an appropriate concentration or containing no compound at all. Culture media such as those described herein are more fully described in standard texts, as for example, Kuchler's Biochemical Methods in Cell Culture and Virology, Dowden, Hutchinson and Ross, Inc., Stroudsberg, PA (1977). Following treatment, cells were challenged with 0.05 ml of rhinovirus type 1A (RV-1A), rhinovirus type 2 (RV-2) or Coxsackie A21 virus (Cox A21) in culture medium. Some of the compounds were also tested against rhinovirus type 5 (RV-5), rhinovirus type 8 (RV-8) or rhinovirus type 64 (RV-64). Cell controls received no viruses.
(§2) ^2 Lowest concentration of the compound (μg/ml) necessary to cause

[2] = system: rhinovirus type 64 (RV-64); assay: Tissue culture testing, rhinovirus type 64 in HeLa cells; type: cell-based; conditions: Enterovirus, 48 and 72 hours, NA = not active at the standard test conditions, read-out: RV-64: lowest concentration of the compound necessary to cause a 50 percent reduction in cytopathic effect
Description: as §1, §2

Cox A21 = assay: Single Oral Dose test in mice challenged IP with Cox A21; type: in vivo, Swiss male mice; conditions: 600 mg/kg P.O. 3 h after IP challenge; >3.84 significant (95% confidence level)
Description: In addition, some of the compounds were tested in animals utilizing the following procedure, hereinafter referred to as the "Single Oral Dose" test. Swiss male mice, 8-12 grams in weight were challenged intraperitoneally (IP) with 0.2 ml of a normally lethal dose, i.e., a virus dose sufficient to cause […].80-100% mortality in infected animals within 10 days of challenge of Cox A21, in phosphate buffered saline containing 1% heat inactivated fetal calf serum. Three hours later mice were treated orally (P.O.) with 0.2 ml of compound suspended in 0.5% hydroxypropyl methylcellulose (Methocel) or with 0.2 ml of 0.5% Methocel containing no compound. […] Mice were observed daily for 7-10 days post-challenge and deaths recorded. A modified Mantel-Haenzel combined chi-square procedure was used to determine significant difference between virus control and treated groups. Chi-square values greater than 3.84 are considered significant (95% confidence level) in this test.

rhinovirus type 2 (RV-2) = assay: Tissue culture testing, rhinovirus type 2 in HeLa cells; type: cell-based; conditions: Enterovirus, 48 and 72 hours, NA = not active at the standard test conditions, read-out: RV-2: lowest concentration of the compound necessary to cause a 50 percent reduction in cytopathic effect
Description: as §1, §2

rhinovirus type 5 (RV-5) = assay: Tissue culture testing, rhinovirus type 5 in HeLa cells; type: cell-based; conditions: Enterovirus, 48 and 72 hours, NA = not active at the standard test conditions, read-out: RV-5: lowest concentration of the compound necessary to cause a 50 percent reduction in cytopathic effect
Description: as §1, §2

rhinovirus type 8 (RV-8) = assay: Tissue culture testing, rhinovirus type 8 in HeLa cells; type: cell-based; conditions: Enterovirus, 48 and 72 hours, NA = not active at the standard test conditions, read-out: RV-8: lowest concentration of the compound necessary to cause a 50 percent reduction in cytopathic effect
Description: as §1, §2

[3] = Cytotoxicity in tissue culture testing (HeLa monolayers); type: cell-based; conditions: human; HeLa cells; observed at 48 and 72 hours post-treatment; read-out: Cytotoxicity: concentration of the compound found to be toxic to the cell
Description: as §1
^1 Cytotoxicity figures represent the concentration of the compound, […]

[4] = system: Coxsackie A21 virus (Cox A21); assay: Tissue culture testing, Coxsackie A21 virus in HeLa cells; type: cell-based; conditions: 48 and 72 hours, NA = not active at the standard test conditions, read-out: Cox A21: lowest concentration of the compound necessary to cause a 50 percent reduction in cytopathic effect
Description: as §1, §2

Coxsackie A21 virus = assay: Continuous Oral Feeding test in mice challenged IP with Coxsackie A21 virus; type: in vivo; conditions: po, 0.06 % in diet, 240 h
Description: Some of the compounds were also tested in animals utilizing the following procedure, hereainafter referred to as the "Continuous Oral Feeding" test. Coxsackie A21 virus grown on HeLa cells was administered at a concentration that produces 80 to 100% deaths in mice weighing 8 to 12 grams within 10 days, when the mice are injected (IP) with 0.2 ml of virus preparation. Mice were placed on diets containing test compound dispersed in plain commercially available rodent mash chow at a concentration of 0.06% (weight percent) on day 0. On day 1 the mice were challenged with the virus preparation, 0.2 ml/mouse, (IP). Deaths in both control and experimental groups were recorded for the 10 days and the results analyzed by a chi-square (.chi.^2) test. Chi-square values greater than 3.84 indicate the compound is active (95% confidence level).

SMILES | EC50 [1] [µg/mL] | EC50 [2] [µg/mL] | Single Oral Dose X^2 (chi-square, deaths vs virus control) (Cox A21) | EC50 (rhinovirus type 2 (RV-2)) [µg/mL] | EC50 (rhinovirus type 5 (RV-5)) [µg/mL] | EC50 (rhinovirus type 8 (RV-8)) [µg/mL] | MCC [3] [µg/mL] | EC50 [4] [µg/mL] | Continuous Oral Feeding X^2 (chi-square, deaths vs control) (Coxsackie A21 virus)
CS(=O)(=O)c1ccc(Oc2ccc(Br)cc2)nc1 [Example 29, 2-(4-bromophenoxy)-5-(methylsulfonyl)pyridine] | 0.625 (≈ 1.9 µM) | 0.625 (≈ 1.9 µM) | 5.275 | 0.625 (≈ 1.9 µM) | 25 (≈ 76.2 µM) | 6.25 (≈ 19 µM) | 50 | 5 (≈ 15.2 µM) | 20.885
CS(=O)(=O)c1ccc(Oc2ccc(C#N)cc2)nc1 [Example 30, 4-((5-(methylsulfonyl)-2-pyridinyl)oxy)benzonitrile] | 50 (≈ 182 µM) | 25 (≈ 91.1 µM) | 30.960 | 50 (≈ 182 µM) | 50 (≈ 182 µM) | 25 (≈ 91.1 µM) | > 100 | 6.25 (≈ 22.8 µM) | 24.144
